Laboratory results as given in ChEMBL document CHEMBL1201862, “PubChem BioAssay data set” (2004).
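Following 48 hours of exposure in 96-well plates, responses at five concentrations were used to interpolate endpoints linearly. The concentration for 50% growth inhibition is given as GI50.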 Calls of active or inactive are those of the source. Cut-off read from the data, not from the text of the source: active = GI50 up to about 1.1 µM and inactive = higher.

Legend:
Assay in all cases: NCI tumour cell line growth inhibition, 48 h
[1] = test system: LOX IMVI
[2] = test system: HOP-62
[3] = test system: RPMI-8226
[4] = test system: DLD-1
[5] = test system: SF-295
[6] = test system: DMS-273
[7] = test system: TK-10
[8] = test system: SK-OV-3
[9] = test system: HT-29
[10] = test system: OVCAR-4
[11] = test system: SF-539
[12] = test system: CCRF-CEM
[13] = test system: COLO 205
[14] = test system: K562
[15] = test system: NCI-H23
[16] = test system: SK-MEL-5
[17] = test system: A498
[18] = test system: SN12C
[19] = test system: CAKI-1
[20] = test system: Hs-578T

Compound	GI50 [1]	GI50 [2]	GI50 [3]	GI50 [4]	GI50 [5]	GI50 [6]	GI50 [7]	GI50 [8]	GI50 [9]	GI50 [10]	GI50 [11]	GI50 [12]	GI50 [13]	GI50 [14]	GI50 [15]	GI50 [16]	GI50 [17]	GI50 [18]	GI50 [19]	GI50 [20]
O=C(O)C1=C(C(=O)Nc2ccccc2)C2C=CC1C2 (stereo not given)	> 100 µM (inactive)	> 100 µM (inactive)	> 100 µM (inactive)	> 100 µM (inactive)	> 100 µM (inactive)	> 100 µM (inactive)	> 100 µM (inactive)	> 100 µM (inactive)	> 100 µM (inactive)	> 100 µM (inactive)	> 100 µM (inactive)	> 100 µM (inactive)	> 100 µM (inactive)	> 100 µM (inactive)	> 100 µM (inactive)	> 100 µM (inactive)	> 100 µM (inactive)	> 100 µM (inactive)	–	–
COc1cc2cc3c4c(cc(OC)c(OC)c4c2cc1OC)CCN3C(=O)N(C)C	> 100 µM (inactive)	72.1 µM (inactive)	82.6 µM (inactive)	> 100 µM (inactive)	37.8 µM (inactive)	89.1 µM (inactive)	> 10 µM (inactive)	> 100 µM (inactive)	83.4 µM (inactive)	89.5 µM (inactive)	34.5 µM (inactive)	96.6 µM (inactive)	> 100 µM (inactive)	> 100 µM (inactive)	> 10 µM (inactive)	> 100 µM (inactive)	97.3 µM (inactive)	> 100 µM (inactive)	34.8 µM (inactive)	–
OC1(c2ccccc2)OC(C#Cc2ccccc2)(c2ccccc2)c2ccccc21 (stereo not given)	2.91 µM (inactive)	15.4 µM (inactive)	1.94 µM (inactive)	3.06 µM (inactive)	5.57 µM (inactive)	3.4 µM (inactive)	13.3 µM (inactive)	1.46 µM (inactive)	2.02 µM (inactive)	2.82 µM (inactive)	1.97 µM (inactive)	2.73 µM (inactive)	2.31 µM (inactive)	3.55 µM (inactive)	3.47 µM (inactive)	7.89 µM (inactive)	2.82 µM (inactive)	3.25 µM (inactive)	3.85 µM (inactive)	–
O=C1C(O)=C(CCCc2ccc(Oc3ccccc3)cc2)C(=O)c2ccccc21	3.57 µM (inactive)	10.7 µM (inactive)	5.52 µM (inactive)	10.4 µM (inactive)	7.78 µM (inactive)	3.89 µM (inactive)	18.4 µM (inactive)	51.4 µM (inactive)	30.9 µM (inactive)	19.4 µM (inactive)	6.46 µM (inactive)	18.1 µM (inactive)	17.7 µM (inactive)	5.78 µM (inactive)	4.58 µM (inactive)	3.38 µM (inactive)	10.3 µM (inactive)	10.9 µM (inactive)	21.2 µM (inactive)	–
Cc1cccc(C)c1NC(=O)C(C#N)C1=C(Cl)C(=O)c2ccccc2C1=O (stereo not given)	9.33 µM (inactive)	18 µM (inactive)	8.67 µM (inactive)	8.15 µM (inactive)	16.3 µM (inactive)	30.5 µM (inactive)	19.5 µM (inactive)	20.9 µM (inactive)	18.6 µM (inactive)	16 µM (inactive)	21.4 µM (inactive)	1.62 µM (inactive)	6.35 µM (inactive)	2.77 µM (inactive)	18.7 µM (inactive)	13 µM (inactive)	14.8 µM (inactive)	17.4 µM (inactive)	18.5 µM (inactive)	12.1 µM (inactive)
COC(=O)C1=C(CO)C2C=CC1C2 (stereo not given)	> 100 µM (inactive)	> 100 µM (inactive)	> 100 µM (inactive)	> 100 µM (inactive)	> 100 µM (inactive)	> 100 µM (inactive)	> 100 µM (inactive)	> 100 µM (inactive)	> 100 µM (inactive)	> 100 µM (inactive)	> 100 µM (inactive)	> 100 µM (inactive)	> 100 µM (inactive)	> 100 µM (inactive)	> 100 µM (inactive)	> 100 µM (inactive)	> 100 µM (inactive)	> 100 µM (inactive)	> 100 µM (inactive)	–
Cc1ccc(NC(=O)c2nc(S)nc(N)c2-c2ccccc2C)cc1C	> 100 µM (inactive)	–	> 100 µM (inactive)	> 100 µM (inactive)	–	> 100 µM (inactive)	> 100 µM (inactive)	> 100 µM (inactive)	> 100 µM (inactive)	> 10 µM (inactive)	> 100 µM (inactive)	> 100 µM (inactive)	> 100 µM (inactive)	> 100 µM (inactive)	> 100 µM (inactive)	> 100 µM (inactive)	> 100 µM (inactive)	> 100 µM (inactive)	> 100 µM (inactive)	–
COc1cc(OC(=O)c2c(O)cc(O)c(O)c2C)cc(C)c1C(=O)Oc1cc(C)c(C(=O)O)c(O)c1	> 100 µM (inactive)	> 100 µM (inactive)	> 100 µM (inactive)	> 100 µM (inactive)	> 100 µM (inactive)	> 100 µM (inactive)	> 100 µM (inactive)	> 100 µM (inactive)	> 100 µM (inactive)	> 100 µM (inactive)	> 100 µM (inactive)	> 100 µM (inactive)	> 100 µM (inactive)	> 100 µM (inactive)	> 100 µM (inactive)	> 100 µM (inactive)	> 100 µM (inactive)	> 100 µM (inactive)	> 100 µM (inactive)	–
O=C(/C=C/c1ccccc1F)c1ccc(Cl)c(Cl)c1	15.4 µM (inactive)	> 100 µM (inactive)	27.7 µM (inactive)	23.9 µM (inactive)	39.3 µM (inactive)	35.1 µM (inactive)	> 100 µM (inactive)	> 100 µM (inactive)	27.3 µM (inactive)	44.4 µM (inactive)	30 µM (inactive)	23.3 µM (inactive)	75.3 µM (inactive)	20.5 µM (inactive)	14.2 µM (inactive)	33.5 µM (inactive)	> 39.1 µM (inactive)	35.6 µM (inactive)	38.8 µM (inactive)	–
Cc1ccc(NC(=O)CC2SC(Nc3cccc(Cl)c3C)=NC2=O)cc1 (stereo not given)	> 100 µM (inactive)	> 100 µM (inactive)	28.2 µM (inactive)	48.8 µM (inactive)	39.6 µM (inactive)	> 100 µM (inactive)	92 µM (inactive)	> 100 µM (inactive)	> 100 µM (inactive)	28.7 µM (inactive)	53.1 µM (inactive)	32.1 µM (inactive)	64.7 µM (inactive)	34.6 µM (inactive)	28.6 µM (inactive)	29.6 µM (inactive)	33 µM (inactive)	50.9 µM (inactive)	71.4 µM (inactive)	–
COc1ccc(OC)c2c1C(=O)C1CC1(Br)C2=O (stereo not given)	> 100 µM (inactive)	> 100 µM (inactive)	> 100 µM (inactive)	> 100 µM (inactive)	> 100 µM (inactive)	> 100 µM (inactive)	> 100 µM (inactive)	> 100 µM (inactive)	> 100 µM (inactive)	> 100 µM (inactive)	> 100 µM (inactive)	> 100 µM (inactive)	> 100 µM (inactive)	> 100 µM (inactive)	> 100 µM (inactive)	> 100 µM (inactive)	> 100 µM (inactive)	> 100 µM (inactive)	> 100 µM (inactive)	–
OCCC1(O)CCC(O)CC1 (stereo not given)	> 100 µM (inactive)	> 100 µM (inactive)	> 100 µM (inactive)	> 100 µM (inactive)	> 100 µM (inactive)	> 100 µM (inactive)	> 100 µM (inactive)	> 100 µM (inactive)	> 100 µM (inactive)	> 100 µM (inactive)	> 100 µM (inactive)	> 100 µM (inactive)	> 100 µM (inactive)	> 100 µM (inactive)	> 100 µM (inactive)	> 100 µM (inactive)	> 100 µM (inactive)	–	–	–
O=C(CC(=O)N1N=C(n2ccc3ccccc32)CC1c1ccccc1)Nc1ccc(Cl)cc1 (stereo not given)	> 100 µM (inactive)	> 100 µM (inactive)	52.1 µM (inactive)	> 100 µM (inactive)	> 100 µM (inactive)	> 100 µM (inactive)	> 100 µM (inactive)	> 100 µM (inactive)	> 100 µM (inactive)	> 100 µM (inactive)	8.75 µM (inactive)	> 100 µM (inactive)	> 100 µM (inactive)	> 100 µM (inactive)	> 100 µM (inactive)	–	> 100 µM (inactive)	> 100 µM (inactive)	–	–
C[C@]12CCCC(=O)C1(O)C[C@H](C(=O)O)CC2 (stereo not given in full)	> 100 µM (inactive)	> 100 µM (inactive)	> 100 µM (inactive)	> 100 µM (inactive)	> 100 µM (inactive)	> 100 µM (inactive)	> 100 µM (inactive)	> 100 µM (inactive)	> 100 µM (inactive)	> 100 µM (inactive)	> 100 µM (inactive)	> 100 µM (inactive)	> 100 µM (inactive)	> 100 µM (inactive)	> 100 µM (inactive)	> 100 µM (inactive)	> 100 µM (inactive)	> 100 µM (inactive)	> 100 µM (inactive)	–
CCN(CC)CCNc1ccc2nc(C)n3c4ccc(OC)cc4c(=O)c1c23	1.15 µM (inactive)	4.06 µM (inactive)	1.36 µM (inactive)	0.463 µM (active)	0.641 µM (active)	0.695 µM (active)	0.873 µM (active)	5.48 µM (inactive)	0.323 µM (active)	1.41 µM (inactive)	1.91 µM (inactive)	0.126 µM (active)	0.693 µM (active)	0.401 µM (active)	2.06 µM (inactive)	5.57 µM (inactive)	3.7 µM (inactive)	0.546 µM (active)	1.86 µM (inactive)	1.04 µM (active)
